Entries after “also recorded” stand apart in the source; their conditions may differ.
Legend:
human GIP receptor = molecular target: T1, human GIP receptor (Homo sapiens, UniProt P48546); experiment: In vitro potency (CRE luciferase; whole cells), BHK CRE luc2P hGIPR; format: cell-based; conditions: 0.2% HSA
T1 construct: expressed in transfected cells; host or cells: BHK (parent line BHKTS13), BHK CRE luc2P hGIPR clone #5
T1 sequence (P48546 22-466): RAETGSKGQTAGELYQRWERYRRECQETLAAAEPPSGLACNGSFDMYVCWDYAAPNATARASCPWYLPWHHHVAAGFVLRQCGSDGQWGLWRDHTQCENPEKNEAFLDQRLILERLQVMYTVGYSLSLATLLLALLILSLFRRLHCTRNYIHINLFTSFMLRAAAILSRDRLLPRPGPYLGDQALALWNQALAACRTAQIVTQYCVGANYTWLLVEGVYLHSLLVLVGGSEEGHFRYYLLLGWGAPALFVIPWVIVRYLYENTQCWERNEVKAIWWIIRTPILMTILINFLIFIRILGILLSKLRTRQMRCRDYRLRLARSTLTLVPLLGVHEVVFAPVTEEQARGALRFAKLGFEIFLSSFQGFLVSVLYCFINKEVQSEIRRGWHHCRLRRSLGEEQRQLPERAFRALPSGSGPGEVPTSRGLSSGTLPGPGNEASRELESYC
Method: (§1) In Vitro Potency (CRE Luciferase; Whole Cells)
(§2) The in vitro potency is the measure of human GIP, GLP-1 or glucagon receptor activation, respectively, in a whole cell assay.
(§3) In vitro potency was determined by measuring the response of the human GIP, GLP-1 or glucagon receptor in a reporter gene assay in individual cell lines. […] When the respective receptor is activated it results in the production of cAMP, which in turn results in the luciferase protein being expressed. When assay incubation is completed the luciferase substrate (luciferin) is added and the enzyme converts luciferin to oxyluciferin to produce bioluminescence. The luminescence is measured as the readout for the assay.
(§4) The cells were derived from a clone containing the CRE luciferase element and were established by further transfection with the respective receptor to obtain the current clone.
(§5) The cells were cultured at 5% CO2 in Cell Culture Medium. They were aliquoted and stored in liquid nitrogen. The cells were kept in passage and were seeded out the day before each assay.
(§6) The Assay Buffer consisted of 1% ovalbumin and 0.1% Pluronic F-68 in Assay Medium with the addition of human serum albumin at twice the indicated concentrations.
(§7) 1) Cells were plated at 5000 cells/well and incubated overnight.
(§8) 2) Cells were washed three times in PBS.
(§9) 3) Assay Medium (50 μl aliquot) with or without serum albumin was added to each well in the assay plate.
(§10) 4) Stocks of the test compounds and reference compounds were diluted to a concentration of 0.2 μM in Assay Buffer. […] 8) The cells were washed three times with PBS plus some liquid in each well. 9) A 100 μl aliquot of steadylite plus reagent was added to each well of the assay plate (reagent was light sensitive). 10) Each assay plate was covered with aluminum foil to protect it from light and shaken for 30 min at room temperature. 11) Each assay plate was read in a microtiter plate reader. Calculations and Results
(§11) The data from the microtiter plate reader was transferred to GraphPad Prism software. The software performs a non-linear regression (log(agonist) vs response).
(§12) A minimum of two replicates was measured for each sample. The reported values are averages of the replicates.

human GLP-1 receptor = molecular target: T2, human GLP-1 receptor (Homo sapiens, UniProt P43220); experiment: In vitro potency (CRE luciferase; whole cells), BHK CRE luc2P hGLP-1R; format: cell-based; conditions: 0.2% HSA
T2 construct: expressed in transfected cells; host or cells: BHK (parent line BHKTS13), BHK CRE luc2P hGLP-1R clone #6
T2 sequence (P43220 24-463): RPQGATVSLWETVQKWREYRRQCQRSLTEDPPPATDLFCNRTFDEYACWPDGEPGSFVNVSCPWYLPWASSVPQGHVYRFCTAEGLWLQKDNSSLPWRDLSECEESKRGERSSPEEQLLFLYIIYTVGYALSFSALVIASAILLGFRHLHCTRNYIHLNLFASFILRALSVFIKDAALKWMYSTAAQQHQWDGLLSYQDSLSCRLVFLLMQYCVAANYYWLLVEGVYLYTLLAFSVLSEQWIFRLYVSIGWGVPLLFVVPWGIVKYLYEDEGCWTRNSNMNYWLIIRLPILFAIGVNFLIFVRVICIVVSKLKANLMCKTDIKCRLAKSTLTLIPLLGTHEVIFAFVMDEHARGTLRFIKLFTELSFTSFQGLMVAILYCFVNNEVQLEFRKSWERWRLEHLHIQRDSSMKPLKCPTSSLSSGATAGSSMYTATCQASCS
Method: as §1, §2, §3, §4, §5, §6, §7, §8, §9, §10, §11, §12

[1] = Dynamic Light Scattering Stability Index (DLS-SI); format: physicochemical; conditions: concentration only 5 μM instead of 250 μM; pH 7.4, 25° C.
[2] = ThT fibrillation assay (physical stability); format: physicochemical; conditions: 250 μM, pH 7.4, 37° C., 45 hours of incubation
Method: The Thioflavin T assay was performed as outlined in Schlein (2017), AAPS J, 19(2), 397-408.
This has traditionally been measured by visual inspection of the sample. However, that kind of measurement is very cumbersome and depending on the observer. Therefore, the application of a small molecule indicator probe is much more advantageous. Thioflavin T (ThT) is such a probe and has a distinct fluorescence signature when binding to fibrils [Naiki et al. (1989) Anal. Biochem. 177, 244-249; LeVine (1999) Methods. Enzymol. 309, 274-284].
The time course for fibril formation can be described by a sigmoidal curve with the following expression [Nielsen et al. (2001) Biochemistry 40, 6036-6046]:
Here, F is the ThT fluorescence at the time t. The constant t0 is the time needed to reach 50% of maximum fluorescence. The two important parameters describing fibril formation are the lag-time calculated by t0−2τ and the apparent rate constant kapp 1/τ.
Few of those intermediates nucleate to form a template onto which further intermediates may assembly and the fibrillation proceeds. The lag-time corresponds to the interval in which the critical mass of nucleus is built up and the apparent rate constant is the rate with which the fibril itself is formed.
Samples are prepared freshly before each assay. The drug substance was solved with 250 μM of the GIP derivative in 8 mM phosphate, 14 mg/mL propylene glycol, 58 mM phenol, pH 7.4. The pH of the sample was adjusted to the desired value using appropriate amounts of concentrated NaOH and HCl. Thioflavin T was added to the samples from a stock solution in H2O to a final concentration of 1 μM.
Sample aliquots of 200 μl were placed in each well of a 96 well microtiter plate (Packard OptiPlate™-96, white polystyrene). Four replica of each sample (corresponding to one test condition) was placed in one column of wells. The plate was sealed with Scotch Pad (Qiagen).
Incubation, shaking and measurement of the ThT fluorescence emission were done in a Fluoroskan Ascent FL fluorescence platereader (Thermo Labsystems). […] Fluorescence measurement was done using excitation through a 444 nm filter and measurement of emission through a 485 nm filter.
Each run was initiated by incubating the plate at the assay temperature for 10 min. The plate was measured every 20 minutes for a desired period of time. Between each measurement, the plate was shaken and heated as described.
After completion of the ThT assay the replica of each sample was pooled and centrifuged at 20000 rpm for 30 minutes at 18° C. The supernatant was filtered through a 0.22 μm filter and an aliquot was transferred to a HPLC vial. The concentration of the filtered sample relative to the initial sample (in percentage) was reported as the recovery.
The measurement points were saved in Microsoft Excel format for further processing and curve drawing and fitting was performed using GraphPad Prism. […] The data points were a mean of the four replica and shown with standard deviation error bars. Only data obtained in the same experiment (i.e. samples on the same plate) were presented in the same graph ensuring a relative measure of fibrillation between experiments.
The data set may be fitted to Eq. (1).

[3] = Chemical stability: HMWP formation by SEC-MS; format: physicochemical; conditions: 37° C., 4 weeks, 250 μM, pH 7.4
Method: The aim of this study is to determine the chemical stability of GIP derivative compositions. As a measure of stability of the GIP derivative composition, the formation of high molecular weight peptide formation (% HMWP) as a function of time was analysed by size-exclusion chromatography (SEC-MS). Further, the purity loss of the GIP derivative compositions was measured by LCMS. Samples for chemical stability assays were freshly prepared before each assay. […] The pH of the sample was adjusted to the desired value using appropriate amounts of concentrated NaOH and HCl. […] Formation of covalent oligomers (HMWPs) was analysed and identified by a SEC-MS method. […] The LC system was coupled to both a TUV detector operated at 215 nm, 10 Hz and a high resolution QToF mass spectrometer from Waters (Synapt G2S) operated in positive ion mode and m/z range of 100 to 4000 with normal resolution setting. Lock mass correction against Leu-Enkephalin was done every 31 sec. Spectra were processed in MassLynx version 4.1 and MaxEnt deconvoluted.

[4] = Chemical stability: purity loss by LCMS; format: physicochemical; conditions: 37° C., 4 weeks, 250 μM, pH 7.4
Method: The aim of this study is to determine the chemical stability of GIP derivative compositions. As a measure of stability of the GIP derivative composition, the formation of high molecular weight peptide formation (% HMWP) as a function of time was analysed by size-exclusion chromatography (SEC-MS). Further, the purity loss of the GIP derivative compositions was measured by LCMS. Samples for chemical stability assays were freshly prepared before each assay. […] The pH of the sample was adjusted to the desired value using appropriate amounts of concentrated NaOH and HCl. […] The column oven was kept at 55° C. […] The solvents were pumped from a binary solvent manager system and mixed on the high pressure side in a mixer with a volume of 50 μl. The gradient and flow can be seen in table 4: [table] A Flow-through-needle auto sampler at 8° C. was used to inject 1 μl of each sample. The effluent passed through a tunable UV detector (TUV) tuned to 215 nm. The outlet from the UV detector passed to the electrospray source of the mass spectrometer. The capillary was held at 3 kV and dry nitrogen gas was purged at a flow of 750 I/h and a temperature of 250° C. The source block was kept at 120° C. and the large bore cone was flushed with nitrogen at 50 I/h with standard electrode potentials on the rest of the instrument. The MS was operated in high resolution mode with a nominal resolution of 35000. The ToF analyser was operated in ADC mode with an m/z window from 100-2000.

SMILES	EC50 (human GIP receptor)	EC50 (human GLP-1 receptor)	DLS-SI precipitates [1]	ThT Assay Lag time [2]	HMWP formation (%/month) [3]	Purity loss (%/month) [4]
CCCC[C@H](NC(=O)[C@H](C)NC(=O)[C@@H](NC(=O)[C@H](CO)NC(=O)[C@H](Cc1ccc(O)cc1)NC(=O)[C@H](CC(=O)O)NC(=O)[C@H](CO)NC(=O)[C@@H](NC(=O)[C@H](Cc1ccccc1)NC(=O)[C@@H](NC(=O)CNC(=O)[C@H](CCC(=O)O)NC(=O)C(C)(C)NC(=O)[C@@H](Cc1ccc(O)cc1)NC(C)=O)[C@@H](C)O)[C@@H](C)CC)[C@@H](C)CC)C(=O)N[C@@H](CC(=O)O)C(=O)N[C@@H](CCCCN)C(=O)N[C@H](C(=O)N[C@@H](CCCNC(=N)N)C(=O)N[C@@H](CCC(N)=O)C(=O)N[C@@H](CCC(N)=O)C(=O)N[C@@H](CC(=O)O)C(=O)N[C@@H](Cc1ccccc1)C(=O)N[C@H](C(=O)N[C@@H](CCCCNC(=O)CC[C@H](NC(=O)CC[C@H](NC(=O)CC[C@H](NC(=O)CCCCCCCCCCCCCCCCC(=O)O)C(=O)O)C(=O)O)C(=O)O)C(=O)N[C@@H](Cc1c[nH]c2ccccc12)C(=O)N[C@@H](CC(C)C)C(=O)N[C@@H](CC(C)C)C(=O)N[C@@H](C)C(=O)N[C@@H](CCC(N)=O)C(=O)N[C@@H](CCCCN)C(=O)N1CCC[C@H]1C(N)=O)C(C)C)[C@@H](C)CC [Compound 46, N{1}-acetyl,N{Epsilon-24}-[(4S)-4-carboxy-4-[[(4S)-4-carboxy-4-[[(4S)-4-carboxy-4-(17-carboxyheptadecanoylamino)butanoyl]amino]butanoyl]amino]butanoyl]-[D-Tyr1,Aib2,Nle14,Arg18,Lys24,Pro31]-hGIP(1-31) amide]	21.2 pM	> 100000 pM	–	–	–	–
CC[C@H](C)[C@H](NC(=O)[C@H](CO)NC(=O)[C@H](Cc1ccc(O)cc1)NC(=O)[C@H](CC(=O)O)NC(=O)[C@H](CO)NC(=O)[C@@H](NC(=O)[C@H](Cc1ccccc1)NC(=O)[C@@H](NC(=O)CNC(=O)[C@H](CCC(=O)O)NC(=O)[C@H](C)NC(=O)[C@@H](N)Cc1ccc(O)cc1)[C@@H](C)O)[C@@H](C)CC)C(=O)N[C@@H](C)C(=O)N[C@@H](CCSC)C(=O)N[C@@H](CC(=O)O)C(=O)N[C@@H](CCCCN)C(=O)N[C@H](C(=O)N[C@@H](Cc1c[nH]cn1)C(=O)N[C@@H](CCC(N)=O)C(=O)N[C@@H](CCC(N)=O)C(=O)N[C@@H](CC(=O)O)C(=O)N[C@@H](Cc1ccccc1)C(=O)N[C@H](C(=O)N[C@@H](CC(N)=O)C(=O)N[C@@H](Cc1c[nH]c2ccccc12)C(=O)N[C@@H](CC(C)C)C(=O)N[C@@H](CC(C)C)C(=O)N[C@@H](C)C(=O)N[C@@H](CCC(N)=O)C(=O)N[C@@H](CCCCN)C(=O)NCC(=O)O)C(C)C)[C@@H](C)CC [hGIP(1-31), reference compound]	2.24 pM	–	visible as precipitation; also recorded: Yes^##	0 h	0.15 %/month	86.9 %/month
